EC50 data for seven compounds are collected here from patent publication US12030904B2 (priority 2020, dated 2024).

Read-outs that look alike come from different tables or passages of the source.

Test [1] deals with Recombinant Respiratory Syncytial virus strain A2 containing the firefly luciferase reporter (RSV-Fluc). Nature of the test: microbe, parasite or virus in culture. It counts as cell-based. The conditions noted are these: human respiratory syncytial virus, NHBE.
For another test, the system named is SARS-CoV-2. Put plainly: microbe, parasite or virus in culture. Type of test: cell-based. The conditions noted are these: Severe acute respiratory syndrome coronavirus 2, read-out: SARS EC50.
Where [2] appears, read: 72 h, read-out: RSV-Fluc EC50 (NHBE), NHBE cells, three days, Table 2.

A word on the EC50: it is the midpoint of the concentration-response curve.

Consider `CCCCCCCCCCCCCCCCCCOC[C@H](COP(=O)(O)OC[C@H]1O[C@@](C#N)(c2ccc3c(N)ncnn23)[C@H](O)[C@@H]1O)OCc1cc(C#N)cc(C#N)c1` [Example 26, ((2R,3S,4R,5R)-5-(4-aminopyrrolo[2,1-f][1,2,4]triazin-7-yl)-5-cyano-3,4-dihydroxytetrahydrofuran-2-yl)methyl ((R)-2-((3,5-dicyanobenzyl)oxy)-3-(octadecyloxy)propyl) hydrogen phosphate], for which the EC50 in test [1] (setting [2]) stood at 19 nM; in test [1] (read-out: RSV EC50, Table 2a), 19 nM; with SARS-CoV-2 it was 650 nM.
Consider `CCCCCCCCCCCCCCCCCCOC[C@@H](COP(=O)(O)OC[C@H]1O[C@@](C#N)(c2ccc3c(N)ncnn23)[C@H](O)[C@@H]1O)Oc1ccccc1` [Example 38, ((2R,3S,4R,5R)-5-(4-aminopyrrolo[2,1-f][1,2,4]triazin-7-yl)-5-cyano-3,4-dihydroxytetrahydrofuran-2-yl)methyl ((S)-3-(octadecyloxy)-2-phenoxypropyl) hydrogen phosphate], for which the 50% effective concentration (EC50) turned out to be 281 nM in test [1] (read-out: RSV EC50, Table 2a) and 10000 nM with SARS-CoV-2.
As for `CCCCCCCCCCCCCCCCCCOC[C@H](COP(=O)(O)OC[C@H]1O[C@@](C#N)(c2ccc3c(N)ncnn23)[C@H](O)[C@@H]1O)OCc1ccccc1C#N` [Example 50, ((2R,3S,4R,5R)-5-(4-aminopyrrolo[2,1-f][1,2,4]triazin-7-yl)-5-cyano-3,4-dihydroxytetrahydrofuran-2-yl)methyl ((R)-2-((2-cyanobenzyl)oxy)-3-(octadecyloxy)propyl) hydrogen phosphate], the 50% effective concentration (EC50) in test [1] (setting [2]) was found to be 90 nM; in test [1] (read-out: RSV EC50, Table 2a), 90 nM; with SARS-CoV-2, 854 nM.
For the compound `CCCCCCCCCCCCCCCCCCOC[C@H](COP(=O)(O)OC[C@H]1O[C@@](C#N)(c2ccc3c(N)ncnn23)[C@H](O)[C@@H]1O)OCc1cccc(OC)c1` [Example 63, ((2R,3S,4R,5R)-5-(4-aminopyrrolo[2,1-f][1,2,4]triazin-7-yl)-5-cyano-3,4-dihydroxytetrahydrofuran-2-yl)methyl ((R)-2-((3-methoxybenzyl)oxy)-3-(octadecyloxy)propyl) hydrogen phosphate], the EC50 in test [1] (setting [2]) was found to be 33 nM; in test [1] (read-out: RSV EC50, Table 2a), 3 nM; in the test on SARS-CoV-2 it was 1050 nM.
In the case of `CCCCCCCCCCCCCCCCCCOC[C@H](COP(=O)(O)OC[C@H]1O[C@@](C#N)(c2ccc3c(N)ncnn23)[C@H](O)[C@@H]1O)OCc1ccccc1Cl` [Example 64, ((2R,3S,4R,5R)-5-(4-aminopyrrolo[2,1-f][1,2,4]triazin-7-yl)-5-cyano-3,4-dihydroxytetrahydrofuran-2-yl)methyl ((R)-2-((2-chlorobenzyl)oxy)-3-(octadecyloxy)propyl) hydrogen phosphate], the 50% effective concentration (EC50) stood at 42 nM in test [1] (setting [2]); 42 nM in test [1] (read-out: RSV EC50, Table 2a); 735 nM in the test on SARS-CoV-2.
For `CCCCCCCCCCCCCCCCCCOC[C@H](COP(=O)(O)OC[C@H]1O[C@@](C#N)(c2ccc3c(N)ncnn23)[C@H](O)[C@@H]1O)OCc1c(F)cccc1C#N` [Example 65, ((2R,3S,4R,5R)-5-(4-aminopyrrolo[2,1-f][1,2,4]triazin-7-yl)-5-cyano-3,4-dihydroxytetrahydrofuran-2-yl)methyl ((R)-2-((2-cyano-6-fluorobenzyl)oxy)-3-(octadecyloxy)propyl) hydrogen phosphate], the EC50 came out at 61 nM in test [1] (setting [2]) and 61 nM in test [1] (read-out: RSV EC50, Table 2a).
For `CCCCCCCCCCCCCCCCCCOC[C@H](COP(=O)(O)OC[C@H]1O[C@@](C#N)(c2ccc3c(N)ncnn23)[C@H](O)[C@@H]1O)OCc1cc(C#N)ccc1F` [Example 66, ((2R,3S,4R,5R)-5-(4-aminopyrrolo[2,1-f][1,2,4]triazin-7-yl)-5-cyano-3,4-dihydroxytetrahydrofuran-2-yl)methyl ((R)-2-((5-cyano-2-fluorobenzyl)oxy)-3-(octadecyloxy)propyl) hydrogen phosphate], the EC50 was 10 nM in test [1] (setting [2]); 10 nM in test [1] (read-out: RSV EC50, Table 2a); 476 nM with SARS-CoV-2.
